Assay results reported in patent publication US20100204158A1, “COMBINATION OF SPLENOPENTIN AND THYMOPENTIN AND THE USE THEREOF IN MEDICINE” (priority 2007, published 2010).
Residues, ends and D or L forms follow the SMILES beside them. No end group written: not given here.

How the values were obtained:
HIV-1IIIB = assay: HIV-1 antiviral assay in CEM-SS cells (MTS readout); assay type: cell-based
HCMV strain AD169 = assay: HCMV plaque formation assay in MRC-5 cells; details: for inhibition of HCMV plaque formation as compared to the virus control experiment: 10 micrograms per ml, 7-10 days
[1] = test system: hepatitis B virus (HBV) ayw strain; assay: HBV experimental assay system (HepG2-2.2.15, TaqMan PCR of secreted HBV DNA); assay type: cell-based; details: 10 micrograms per ml; HepG2-2.2.15, six days, HBV DNA by TaqMan PCR
Excerpt: HepG2-2.2.15 is a stable cell line containing the hepatitis B virus (HBV) ayw strain genome (ATCC Cat. No. CRL-11997). Antiviral compounds blocking any late step of viral replication such as transcription, translation, pregenome encapsidation, reverse transcription, particle assembly and release can be identified and characterized using this cell line. In this assay, an active compound will reduce the production of secreted HBV from cells, measured by utilizing real time quantitative PCR (TaqMan) assay to directly and accurately measure HBV DNA copies.
HepG2-2.2.15 cells were plated in 96-well microtiter plates. After 16-24 hours the confluent monolayer of HepG2-2.2.15 cells was washed and the medium was replaced with complete medium containing test peptides—10 micrograms per ml—in duplicate. […] Six days following the initial administration of the peptides, the cell culture supernatants was collected, treated with pronase and DNAse and then used in a real-time quantitative TaqMan PCR assay. The PCR-amplified HBV DNA was detected in real-time by monitoring increases in fluorescence signals that result from the exonucleolytic degradation of a quenched fluorescence probe molecule that hybridizes to the amplified HBV DNA. […] Antiviral activity was calculated from the reduction in HBV DNA levels (% virus control). […]

[2] = test system: Primary Human endothelial cells (HUVEC); assay: Endothelial cell migration assay; assay type: cell-based; details: 10 micrograms per ml, 22 hours
murine spleen cells = assay: Th1/Th2 cytokine profiling assay (Ovalbumin-restimulated spleen cells, CBA kit); assay type: cell-based, Balb/c mice; details: 10 micrograms per ml, Ovalbumin restimulation, 72 hours
HUVEC = assay: Endothelial tube formation assay; assay type: cell-based, human; details: 10 micrograms per ml, 20 hours
Excerpt: Positive control was vehicle only.

Row | Molecule | antiviral activity of positive control compounds (HIV-1) (HIV-1IIIB) | inhibition of HBV replication as compared to the virus control infection [1] | inhibition of HCMV plaque formation as compared to the virus control experiment (HCMV strain AD169) | inhibition of the migration of human endothelial cells [2] | change of the production of TNF-alpha (in words) (murine spleen cells) | induction of the production of IL-2 (murine spleen cells) | induction of the production of IL-4 (murine spleen cells) | inhibition of the tube formation of human endothelial cells (HUVEC) | also measured
1 | Cc1cn([C@H]2C[C@H](N=[N+]=[N-])[C@@H](CO)O2)c(=O)[nH]c1=O [AZT] | expected levels of antiviral activity |  |  |  |  |  |  |  | 
2 | Nc1nc(O)c2ncn(COC(CO)CO)c2n1 [Ganciclovir, reference compound] |  |  |  |  |  |  |  |  | antiviral activity of positive control compound (HCMV) (HCMV strain AD169; positive control, HCMV AD169): expected levels of antiviral activity
3 | CC(C)[C@H](NC(=O)[C@H](CC(=O)O)NC(=O)[C@H](CCCCN)NC(=O)[C@@H](N)CCCN=C(N)N)C(=O)N[C@@H](Cc1ccc(O)cc1)C(=O)O [Peptide 2, Arg-Lys-Asp-Val-Tyr-OH] (H-RKDVY-OH) |  | 6.2% | 1.4% | 7% | did not significantly change | 22.2% | 70.6% | 31% | decrease of the production of IFN-gamma (murine spleen cells): 38.0%; decrease of the production of IL-5 (murine spleen cells): 28.2%
4 | CC(C)(C)NC(=O)[C@@H]1CN(Cc2cccnc2)CCN1C[C@@H](O)C[C@@H](Cc1ccccc1)C(=O)N[C@H]1c2ccccc2C[C@H]1O [indinavir] | expected levels of antiviral activity |  |  |  |  |  |  |  | 
5 | Arg-Lys-Glu-Val-Tyr-OH (RKEVY-OH) [Peptide 1, Splenopentin, commercially available known peptide] |  | 19.5% | no effect | did not inhibit | did not significantly change | 68.5% | 68.1% | 22% | change of the production of IL-5 (in words) (murine spleen cells): did not significantly change; induction of the production of IFN-γ (murine spleen cells): 38.9%
